Each block holds one molecule with its values, some of them ahead of it.
Tests used:
canine PepT1 (cPepT1) [1] = biological target: T1, canine PepT1 (cPepT1) (Canis lupus familiaris, UniProt Q8WMX5); experiment: Inhibition of H+-dependent 100 μM GlySar uptake by MDCK cells cultured in LHM; assay type: cell-based; details: 100 μM GlySar
T1 construct: endogenous in cells; host or cells: MDCK (Madin-Darby Canine Kidney) cells, whole-cell [3H]-GlySar uptake
T1 sequence (Q8WMX5 1-708): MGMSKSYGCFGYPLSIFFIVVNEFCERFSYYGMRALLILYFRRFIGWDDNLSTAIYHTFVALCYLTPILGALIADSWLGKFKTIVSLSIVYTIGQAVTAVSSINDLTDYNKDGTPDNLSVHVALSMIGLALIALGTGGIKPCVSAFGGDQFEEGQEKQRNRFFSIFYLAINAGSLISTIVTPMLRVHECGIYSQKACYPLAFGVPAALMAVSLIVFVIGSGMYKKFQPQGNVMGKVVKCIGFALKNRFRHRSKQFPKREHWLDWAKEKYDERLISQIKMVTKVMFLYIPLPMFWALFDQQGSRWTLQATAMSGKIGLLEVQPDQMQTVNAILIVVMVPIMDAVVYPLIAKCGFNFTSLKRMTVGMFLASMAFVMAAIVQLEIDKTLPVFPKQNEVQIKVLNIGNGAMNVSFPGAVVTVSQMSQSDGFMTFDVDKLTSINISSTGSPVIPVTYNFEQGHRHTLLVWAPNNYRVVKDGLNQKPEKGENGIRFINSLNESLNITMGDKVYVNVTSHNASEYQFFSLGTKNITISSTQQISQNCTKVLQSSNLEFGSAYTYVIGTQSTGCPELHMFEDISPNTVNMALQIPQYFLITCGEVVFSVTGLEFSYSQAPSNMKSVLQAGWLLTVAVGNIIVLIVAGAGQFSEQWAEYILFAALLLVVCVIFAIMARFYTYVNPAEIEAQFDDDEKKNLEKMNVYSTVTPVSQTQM
Protocol: Characteristic hallmarks of low affinity H^+/peptide cotransport activity, classically defined using membrane vesicles of several species, and more recently by functional expression studies using human, rat, and rabbit PepT1 cDNA, is the recognition of some, but not all, β-lactam antibiotics. […] To determine whether MDCK cPepT1 activity shared these functional features, the uptake of 100 μM GlySar in the absence and presence of pH 7.5 and pH 6.0 buffer, and, in pH 6.0 buffers, the presence of 1 mM additional GlySar (self-inhibitor control), 3 mM Penicillin-G, 30 μM cefadroxil, or 3 mM cefadroxil was compared (FIG. 13).
Other hallmarks of PepT1 function are the decreased ability of Gly-containing peptides to inhibit GlySar, in proportion to their length, and sensitivity to inhibition by carnosine (β-Ala-His).
Accordingly, the following general regimen was used to perform a series of experiments that evaluated the relative abilities of candidate di-(primarily) and tri-peptides to inhibit GlySar uptake by endogenously expressed cPepT1 in MDCK cells:
1. Sixty thousand cells/well were plated into collagen-coated 24-well trays and cultured at 37° C. in an atmosphere of 95% air/5% CO2 in DMEM/10% FCS that contained antibiotics for 1 day.
2. The media was removed and cells were cultured in LHM/10% FCS/antibiotics for 1 day.
3. The media was removed and cells cultured in LHM/10% FCS (no antibiotics) for 20 h.
4. The media was removed and cells cultured for 30 min in air at 37° C. in depletion medium (25 mM Hepes/Tris (pH 7.5), 140 mM NaCl, 5.4 mM KCl, 1.8 mM CaCl2, 0.8 mM MgSO4, and 5 mM glucose, to normalize intracellular nutrient pools.
5. Transport was initiated by replacing depletion medium with uptake medium (depletion medium adjusted to pH 6.0 or kept at pH 7.4) that contained 100 μM GlySar (at a specific activity of 5 μCi/mL, with [^3H]-GlySar supplying 2.88% of total GlySar substrate) and (or) 1 mM of inhibiting peptide.
In total, 23 inhibitory peptides and 2 drug compounds were screened using this protocol.

PepT1 = biological target: T2, PepT1 (Homo sapiens, UniProt P46059); details: read-out: Ki of cefadroxil inhibition of GlySar uptake by PepT1; cited from earlier work
T2 sequence (P46059 1-708): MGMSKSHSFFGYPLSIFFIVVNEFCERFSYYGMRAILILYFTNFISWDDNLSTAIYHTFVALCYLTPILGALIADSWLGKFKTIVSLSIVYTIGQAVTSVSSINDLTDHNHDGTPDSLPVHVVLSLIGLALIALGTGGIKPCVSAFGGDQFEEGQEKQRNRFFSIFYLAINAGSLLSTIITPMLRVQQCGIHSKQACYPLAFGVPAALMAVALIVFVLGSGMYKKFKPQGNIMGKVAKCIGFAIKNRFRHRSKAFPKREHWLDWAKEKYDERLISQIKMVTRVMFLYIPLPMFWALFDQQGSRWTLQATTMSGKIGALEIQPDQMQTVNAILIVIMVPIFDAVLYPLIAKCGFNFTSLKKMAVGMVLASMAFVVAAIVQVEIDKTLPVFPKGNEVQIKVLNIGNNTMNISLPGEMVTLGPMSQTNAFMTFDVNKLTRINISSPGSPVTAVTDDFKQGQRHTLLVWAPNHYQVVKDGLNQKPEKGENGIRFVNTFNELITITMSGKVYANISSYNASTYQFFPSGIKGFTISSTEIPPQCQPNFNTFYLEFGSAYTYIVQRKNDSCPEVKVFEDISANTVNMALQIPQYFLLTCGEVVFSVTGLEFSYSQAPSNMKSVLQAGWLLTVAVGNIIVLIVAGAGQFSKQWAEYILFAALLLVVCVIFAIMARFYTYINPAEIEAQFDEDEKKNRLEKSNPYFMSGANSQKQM

PepT2 = biological target: T3, PepT2 (Homo sapiens, UniProt Q16348); details: read-out: Ki of cefadroxil inhibition of PepT2 transport of GlySar; cited from earlier work
T3 sequence (Q16348 1-729): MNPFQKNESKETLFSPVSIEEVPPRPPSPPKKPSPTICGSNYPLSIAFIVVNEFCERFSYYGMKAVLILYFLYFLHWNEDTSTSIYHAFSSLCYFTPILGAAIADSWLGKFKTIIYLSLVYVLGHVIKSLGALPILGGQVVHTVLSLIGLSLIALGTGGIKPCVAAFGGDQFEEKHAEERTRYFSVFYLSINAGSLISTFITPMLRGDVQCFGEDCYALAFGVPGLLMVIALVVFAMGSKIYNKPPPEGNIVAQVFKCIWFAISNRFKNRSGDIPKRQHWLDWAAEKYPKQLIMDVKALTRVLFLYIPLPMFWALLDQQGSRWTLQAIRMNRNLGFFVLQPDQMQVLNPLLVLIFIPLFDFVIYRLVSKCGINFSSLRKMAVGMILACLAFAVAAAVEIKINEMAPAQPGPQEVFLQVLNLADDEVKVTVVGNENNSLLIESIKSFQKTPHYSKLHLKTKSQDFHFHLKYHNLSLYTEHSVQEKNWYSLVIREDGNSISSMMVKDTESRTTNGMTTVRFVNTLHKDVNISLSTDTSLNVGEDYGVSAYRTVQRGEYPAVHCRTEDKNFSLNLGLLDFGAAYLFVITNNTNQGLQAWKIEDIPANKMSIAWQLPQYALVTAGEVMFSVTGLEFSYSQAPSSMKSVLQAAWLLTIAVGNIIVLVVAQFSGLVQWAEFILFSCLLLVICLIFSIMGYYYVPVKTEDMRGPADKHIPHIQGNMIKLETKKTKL

canine PepT1 (cPepT1) [2] = experiment: Influence of dexamethasone, insulin and IGF-I on H+-dependent GlySar uptake by MDCK cells (Trials 3A, 3B); assay type: cell-based; details: for effect on H+-dependent GlySar uptake capacity: 5 or 500 nM in DMEM, 4 h of culture
Protocol: MDCK cells were maintained as described in Trial 1, except that cells were cultured for only 1 d before transport trials were performed. Following initial and common culture conditions, cells were cultured in a “nutrient depleted” buffer (Hepes/Tris (pH 7.5),140 mM NaCl, 5.4 mM KCl, 1.8 mM CaCl2, 0.8 mM MgSO4) that contained 5 mM glucose as an energy source, but that lacked amino acid or vitamin sources. In contrast, cells cultured in DMEM, or DMEM that contained 5 nM Dex, 500 nM Dex, 5 nM insulin, or 500 nM insulin, were adequately nourished. Media treatments (n=4) were as follows:
The measurement of [^3H]Glysarcosine uptake was performed by using the 24-well cluster tray method as previously described in the Methods section of Trial 1. Peptide uptake is reported as pmol* mg^−1 protein*30 min^−1. Uptake measurements were taken after 30 min and 4 h of culture in treatment media.
Trial 3B was conducted in the same manner as described for Trail 3A, except that cells were cultured in DMEM or DMEM that contained 1 nM IGF-1, 5 nM IGF-1, 25 nM IGF-1, or 100 nM IGF-1. Uptake measurements were taken after 30 min and 4 h of culture time.

canine PepT1 (cPepT1) [3] = biological target: T1, canine PepT1 (cPepT1); experiment: Substrate regulation of H+-dependent GlySar uptake capacity of MDCK cells cultured in DMEM (Example 3, Trials 1 and 2); assay type: cell-based; details: 10 mM in DMEM
Protocol: All cells were plated (60,000/2 cm^2 well) and cultured (95% air/5% CO2, 37° C.) for 24 h in Dulbecco's Modified Eagle Media/10% fetal calf serum (FCS)/1%Antibiotic/Antimicrobial solution (ABAM) (DMEM media). Following these initial common culture conditions, cells then were cultured in DMEM, or DMEM that contained 10 mM of Camosine, GlyPhe, Phe, or Gly. Media were changed every 24 h. Media treatments (n=8) were as follows:
The measurement of [^3H]Glysarcosine uptake was performed by using a 24-well cluster tray method (Kilberg M S. Measurement of amino acid transport by hepatocytes in suspension and monolayer culture. Methods Enzym 1989; 173:564-575. Matthews J C, Aslanian A, McDonald K K, Yang W, Malandro M S, Novak D A, Kilberg M S. An expression system for mammalian amino acid transport using a stably maintained episomal vector. Anal Biochem 1997; 254:208-214), and used in Examples 1 and 2. Cells were cultured for 30 min in air at 37° C. in depletion medium (25 mM Hepes/Tris (pH 7.5), 140 mM NaCl, 5.4 mM KCl, 1.8 mM CaCl2, 0.8 mM MgSO4, and 5 mM glucose), to normalize intracellular nutrient pools before transport. The transport assays are initiated by replacing depletion medium with uptake medium (Depletion medium adjusted to pH 6.0) that contained 100 μM GlySar (5 μCi/mL, with [^3H]-GlySar supplying 2.88% of total GlySar). After a 30 minute incubation period, transport was terminated with four rinses of 4° C. depletion medium (pH 7.5). Two hundred and twenty μL of 10% trichloroacetic acid was added to each well, and the radioactivity of the supernatant quantified by liquid scintillation counting. The cells of each well are solubilized in 0.2 N NaOH/0.2% SDS and the protein quantified by using the modified Lowry assay, using bovine serum as a standard. Id. Peptide uptake will be reported as pmol* mg^−1 protein* 30 min^−1. Uptake measurements were taken after 24, 48, and 72 hours of culture in treatment media.
The MDCK cell line was maintained as described previously in the Methods section of Trial 1. […]

% inhibition of H+-dependent GlySar uptake (canine PepT1 (cPepT1) [1]; 30 μM cefadroxil): not inhibited | inhibition at 30 µM (canine PepT1 (cPepT1) [1]; MDCK, 30 μM cefadroxil): 0% | inhibition at 3000 µM (canine PepT1 (cPepT1) [1]; MDCK, 3 mM cefadroxil): ~76%
Molecule: CC1=C(C(=O)O)N2C(=O)[C@@H](NC(=O)[C@H](N)c3ccc(O)cc3)[C@H]2SC1 [Cefadroxil]
Ki (PepT1): 3000 µM | Ki (PepT2): 30 µM

Molecule: IGF-I: Insulin-like Growth factor I
stimulation of H+-dependent GlySar uptake (canine PepT1 (cPepT1) [2]; increasing amounts of IGF-I (1 to 100 nM) in DMEM): no significant stimulation

Molecule: insulin: insulin (negative control)
effect on H+-dependent GlySar uptake capacity (canine PepT1 (cPepT1) [2]): no effect

Molecule: C[C@@H]1C[C@H]2[C@@H]3CCC4=CC(=O)C=C[C@]4(C)[C@@]3(F)[C@@H](O)C[C@]2(C)[C@@]1(O)C(=O)CO [dexamethasone]
effect on H+-dependent GlySar uptake capacity (canine PepT1 (cPepT1) [2]): no effect

% inhibition of H+-dependent GlySar uptake (canine PepT1 (cPepT1) [1]; 1 mM extracellular substrate, pH 6.0, 30 min): 50% | increase of GlySar uptake capacity over DMEM-cultured cells (canine PepT1 (cPepT1) [3]; 72 h of culture): 23% | increase of GlySar uptake capacity over DMEM-cultured cells (canine PepT1 (cPepT1) [3]; 216 h of culture): 291%
Molecule: NCCC(=O)N[C@@H](Cc1cnc[nH]1)C(=O)O [Carnosine, Carnosine (β-AlaHis)]

Source: patent US6803186B2, “Compositions and methods for increasing amino acid absorption in mammals” (The IAMS Company, priority 2001, dated 2004)
